We go through 10 molecules from US20170008921A1, “C-3 NOVEL TRITERPENONE WITH C-28 REVERSE AMIDE DERIVATIVES AS HIV INHIBITORS” (HETERO RESEARCH FOUNDATION, priority 2015, published 2017).

Usually viability stands for a read-out of living cells in per cent, often relative to untreated cells.

The nature of the series: Cyto-toxicity (MTT assay). The format is cell-based. How it is done:
On day 1 calculate the number of cells required for the assay and seed 3×10^4 cells in 200 μl per well. Weigh the compound and dissolve it in DMSO to get 10 mM stock which is further diluted to 3 mM and 1 mM. […] Add DMSO to controls in a way to obtain final concentration of solvent that is not greater than 1%. Incubate for 4 days in 5% CO2 incubator at 37° C. On day 4, 100 μl of medium was removed from each well without disturbing the cells. Add 10 μl of MTT reagent and incubate for 4 hours at 5% CO2 incubator at 37° C. for formation of crystals. Add 200 μl of 0.1N acidic isopropanol to dissolve the crystals and read the plate at 590 nm. The values are mentioned in below Table-3 and Table-3A.

The mark [1] stands for this setting: 0.01 μM, MTT, 4 days (Table 3), read-out: Cytotoxicity % viability.
The mark [2] stands for this setting: 0.1 μM, MTT, 4 days (Table 3), read-out: Cytotoxicity % viability.
Setting [3] is: 1 μM, MTT, 4 days (Table 3), read-out: Cytotoxicity % viability.

Counter-ions that a name gives are not always drawn. Like-named read-outs stand apart in the source and are kept apart here.

For `CC(C)C1=C2[C@H]3CC[C@@H]4[C@@]5(C)CC[C@H](OC(=O)[C@H]6C[C@@H](C(=O)O)C6(C)C)C(C)(C)[C@@H]5CC[C@@]4(C)[C@]3(C)CC[C@@]2(NC(=O)C(C)(C)NC(=O)CN2CCS(=O)(=O)CC2)CC1=O` [Example 34, (1R,3S)-3-((((3aR,5aR,5bR,7aR,9S,11aR,11bR,13aS)-3a-(2-(2-(1,1-dioxidothiomorpholino)acetamido)-2-methylpropanamido)-1-isopropyl-5a,5b,8,8,11a-pentamethyl-2-oxo-3,3a,4,5,5a,5b,6,7,7a,8,9,10,11,11a,11b,12,13,13a-octadecahydro-2H-cyclopenta[a]chrysen-9-yl)oxy)carbonyl)-2,2-dimethylcyclobutane-1-carboxylic acid], the viability at 4 days, 0.01 µM is 26%; the viability at 4 days, 0.1 µM came out at 10%; the viability at 4 days, 1 µM is 1%.

For the molecule `CC(C)C1=C2[C@H]3CC[C@@H]4[C@@]5(C)CC[C@H](OC(=O)[C@H]6C[C@@H](C(=O)O)C6(C)C)C(C)(C)[C@@H]5CC[C@@]4(C)[C@]3(C)CC[C@@]2(NC(=O)C(C)(C)NC(=O)C2CCNCC2)CC1=O` [Example 35, (1R,3S)-3-((((3aR,5aR,5bR,7aR,9S,11aR,11bR,13aS)-1-isopropyl-5a,5b,8,8,11a-pentamethyl-3a-(2-methyl-2-(piperidine-4-carboxamido)propanamido)-2-oxo-3,3a,4,5,5a,5b,6,7,7a,8,9,10,11,11a,11b,12,13,13a-octadecahydro-2H-cyclopenta[a]chrysen-9-yl)oxy)carbonyl)-2,2-dimethylcyclobutane-1-carboxylic acid hydrochloride], the viability at 4 days, 0.01 µM under setting [1] stood at 84%. Under setting [2], the viability at 4 days, 0.1 µM stood at 92%. The viability at 4 days, 1 µM under setting [3] stood at 77%.

Consider `CC(C)C1=C2[C@H]3CC[C@@H]4[C@@]5(C)CC[C@H](OC(=O)[C@H]6C[C@@H](C(=O)O)C6(C)C)C(C)(C)[C@@H]5CC[C@@]4(C)[C@]3(C)CC[C@@]2(NC(=O)C(C)(C)NC(=O)[C@@H](N)C(C)C)CC1=O` [Example 36, (1R,3S)-3-((((3aR,5aR,5bR,7aR,9S,11aR,11bR,13aS)-3a-(2-((S)-2-amino-3-methylbutanamido)-2-methylpropanamido)-1-isopropyl-5a,5b,8,8,11a-pentamethyl-2-oxo-3,3a,4,5,5a,5b,6,7,7a,8,9,10,11,11a,11b,12,13,13a-octadecahydro-2H-cyclopenta[a]chrysen-9-yl)oxy)carbonyl)-2,2-dimethylcyclobutane-1-carboxylic acid hydrochloride], for which the viability at 4 days, 0.01 µM under setting [1] amounted to 56%. Besides, under setting [2], the viability at 4 days, 0.1 µM stood at 15%. Also, the viability at 4 days, 1 µM under setting [3] came out at 8%.

Regarding `CC(C)C1=C2[C@H]3CC[C@@H]4[C@@]5(C)CC[C@H](OC(=O)[C@H]6C[C@@H](C(=O)O)C6(C)C)C(C)(C)[C@@H]5CC[C@@]4(C)[C@]3(C)CC[C@@]2(NC(=O)C2(NC(=O)c3ccc(F)cc3)CC2)CC1=O` [Example 39, (1R,3S)-3-((((3aR,5aR,5bR,7aR,9S,11aR,11bR,13aS)-3a-(1-(4-fluorobenzamido)cyclopropane-1-carboxamido)-1-isopropyl-5a,5b,8,8,11a-pentamethyl-2-oxo-3,3a,4,5,5a,5b,6,7,7a,8,9,10,11,11a,11b,12,13,13a-octadecahydro-2H-cyclopenta[a]chrysen-9-yl)oxy)carbonyl)-2,2-dimethylcyclobutane-1-carboxylic acid], the viability at 4 days, 0.01 µM was 29%; the viability at 4 days, 0.1 µM was 2%; the viability at 4 days, 1 µM was 0%.

Take `Cc1ccc(C(=O)NC2(C(=O)N[C@@]34CC[C@]5(C)[C@H](CC[C@@H]6[C@@]7(C)CC[C@H](OC(=O)[C@H]8C[C@@H](C(=O)O)C8(C)C)C(C)(C)[C@@H]7CC[C@]65C)C3=C(C(C)C)C(=O)C4)CCCCC2)cn1` [Example 49, (1R,3S)-3-((((3aR,5aR,5bR,7aR,9S,11aR,11bR,13aS)-1-isopropyl-5a,5b,8,8,11a-pentamethyl-3a-(1-(6-methylnicotinamido)cyclohexane-1-carboxamido)-2-oxo-3,3a,4,5,5a,5b,6,7,7a,8,9,10,11,11a,11b,12,13,13a-octadecahydro-2H-cyclopenta[a]chrysen-9-yl)oxy)carbonyl)-2,2-dimethylcyclobutane-1-carboxylic acid]: the viability at 4 days, 0.01 µM was 56%; the viability at 4 days, 0.1 µM is 12%; the viability at 4 days, 1 µM is 4%.

Turning to `CC(C)C1=C2[C@H]3CC[C@@H]4[C@@]5(C)CC[C@H](OC(=O)[C@H]6C[C@@H](C(=O)O)C6(C)C)C(C)(C)[C@@H]5CC[C@@]4(C)[C@]3(C)CC[C@@]2(NC(=O)C(C)(C)NC(=O)[C@H]2CCCNC2)CC1=O` [Example 52, (1R,3S)-3-((((3aR,5aR,5bR,7aR,9S,11aR,11bR,13aS)-1-isopropyl-5a,5b,8,8,11a-pentamethyl-3a-(2-methyl-2-((S)-piperidine-3-carboxamido)propan amido)-2-oxo-3,3a,4,5,5a,5b,6,7,7a,8,9,10,11,11a,11b,12,13,13a-octadecahydro-2H-cyclopenta[a]chrysen-9-yl)oxy)carbonyl)-2,2-dimethylcyclobutane-1-carboxylic acid hydrochloride], the viability at 4 days, 0.001 µM (0.001 μM, MTT, 4 days (Table 3A), read-out: Cytotoxicity % viability) was 83%. Besides, for the setting “0.003 μM, MTT, 4 days (Table 3A), read-out: Cytotoxicity % viability”, the viability at 4 days, 0.003 µM came to 89%. For the same molecule, the viability at 4 days, 0.01 µM (0.01 μM, MTT, 4 days (Table 3A), read-out: Cytotoxicity % viability) came to 59%.

`CC(C)C1=C2[C@H]3CC[C@@H]4[C@@]5(C)CC[C@H](OC(=O)[C@H]6C[C@@H](C(=O)O)C6(C)C)C(C)(C)[C@@H]5CC[C@@]4(C)[C@]3(C)CC[C@@]2(NC(=O)C(C)(C)NS(C)(=O)=O)CC1=O` [Example 63, sodium (1R,3S)-3-((((3aR,5aR,5bR,7aR,9S,11aR,11bR,13aS)-1-isopropyl-5a,5b,8,8,11a-pentamethyl-3a-(2-methyl-2-(methylsulfonamido)propanamido)-2-oxo-3,3a,4,5,5a,5b,6,7,7a,8,9,10,11,11a,11b,12,13,13a-octadecahydro-2H-cyclopenta[a]chrysen-9-yl)oxy)carbonyl)-2,2-dimethylcyclobutane-1-carboxylate] registered a viability at 4 days, 0.01 µM of 51%; a viability at 4 days, 0.1 µM of 16%; a viability at 4 days, 1 µM of 0%.

In the case of `CC(C)C1=C2[C@H]3CC[C@@H]4[C@@]5(C)CC[C@H](OC(=O)[C@H]6C[C@@H](C(=O)O)C6(C)C)C(C)(C)[C@@H]5CC[C@@]4(C)[C@]3(C)CC[C@@]2(NC(=O)C(C)(C)NCC2(c3ccc(Cl)cc3)CC2)CC1=O` [Example 69, (1R,3S)-3-((((3aR,5aR,5bR,7aR,9S,11aR,11bR,13aS)-3a-(2-(((1-(4-chlorophenyl)cyclopropyl)methyl)amino)-2-methylpropanamido)-1-isopropyl-5a,5b,8,8, 11a-pentamethyl-2-oxo-3,3a,4,5,5a,5b,6,7,7a,8,9,10,11,11a,11b,12,13,13a-octadecahydro-2H-cyclopenta[a]chrysen-9-yl)oxy)carbonyl)-2,2-dimethylcyclobutane-1-carboxylic acid], the viability at 4 days, 0.01 µM was 42%; the viability at 4 days, 0.1 µM was 8%; the viability at 4 days, 1 µM is 8%.

As for `CC(C)C1=C2[C@H]3CC[C@@H]4[C@@]5(C)CC[C@H](OC(=O)[C@H]6C[C@@H](C(=O)O)C6(C)C)C(C)(C)[C@@H]5CC[C@@]4(C)[C@]3(C)CC[C@@]2(NC(=O)C(C)(C)NCCN(C)C)CC1=O` [Example 73, (1R,3S)-3-((((3aR,5aR,5bR,7aR,9S,11aR,11bR,13aS)-3a-(2-((2-(dimethylamino)ethyl)amino)-2-methylpropanamido)-1-isopropyl-5a,5b,8,8,11a-pentamethyl-2-oxo-3,3a,4,5,5a,5b,6,7,7a,8,9,10,11,11a,11b,12,13,13a-octadecahydro-2H-cyclopenta[a]chrysen-9-yl)oxy)carbonyl)-2,2-dimethylcyclobutane-1-carboxylic acid], the viability at 4 days, 0.01 µM was determined as 52%; the viability at 4 days, 0.1 µM is 11%; the viability at 4 days, 1 µM was found to be 9%.

Consider `CC(C)C1=C2[C@H]3CC[C@@H]4[C@@]5(C)CC[C@H](OC(=O)[C@H]6C[C@@H](C(=O)O)C6(C)C)C(C)(C)[C@@H]5CC[C@@]4(C)[C@]3(C)CC[C@@]2(NC(=O)C(C)(C)NC(=O)OC(C)(C)C)CC1=O` [Example 75, (1R,3S)-3-((((3aR,5aR,5bR,7aR,9S,11aR,11bR,13aS)-3a-(2-((tert-butoxycarbonyl)amino)-2-methylpropanamido)-1-isopropyl-5a,5b,8,8,11a-pentamethyl-2-oxo-3,3a,4,5,5a,5b,6,7,7a,8,9,10,11,11a,11b,12,13,13a-octadecahydro-2H-cyclopenta[a]chrysen-9-yl)oxy)carbonyl)-2,2-dimethylcyclobutane-1-carboxylic acid], for which the viability at 4 days, 0.01 µM is 63%; the viability at 4 days, 0.1 µM came out at 17%; the viability at 4 days, 1 µM amounted to 2%.
